In patent publication US9980943B2, “Methods of treating muscular dystrophy” (BOARD OF REGENTS OF THE NEVADA SYSTEM OF HIGHER EDUCATION, …, priority 2013, dated 2018):

Columns and labels:
Assay type in all cases: cell-based, mouse
[1] = test system: β-galactosidase in CMV-LacZ C2C12 myotubes; assay: CMV-LacZ secondary screen in C2C12 myotubes (β-Gal stabilizing assay); details: C2C12 CMV-LacZ myotubes, fold relative to DMSO
Procedure, shortened: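 A secondary screen identifies compounds that stabilize β-gal independently of the native promoter, using CMV-LacZ C2C12 cells. Curves span 0.5–40 μM at six levels, in duplicate.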

[2] = test system: α7 integrin (LacZ reporter in α7βgal+/− myoblasts); assay: Myoblast α7+/LacZ integrin FDG assay (Burkin assay in myoblasts, 96-well); details: α7+/LacZ myoblasts, 96-well
[3] = test system: α7 integrin (LacZ reporter in α7+/LacZ myotubes); assay: Myotube α7 integrin FDG assay (Burkin assay in myotubes, 96-well); details: myotubes
[4] = test system: β-galactosidase in CMV-LacZ C2C12 myoblasts; assay: CMV-LacZ secondary screen in C2C12 myoblasts (β-Gal stabilizing assay); details: CMV-LacZ C2C12 myoblasts
Procedure, shortened: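 C2C12 myoblasts stably carrying a linearized CMV-driven LacZ construct, clone chosen by β-gal level in the myoblast FDG assay. Compounds tested in 96-well dose-response at 0.5, 1, 5, 10, 20 and 40 μM, N=2 replicates per point, to detect β-gal stabilization.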

| SMILES | CMV-LACZ in Myotubes, signal relative to DMSO ([1]; 0.5 uM) | CMV-LACZ in Myotubes, signal relative to DMSO ([1]; 1 uM) | CMV-LACZ in Myotubes, signal relative to DMSO ([1]; 5 uM) | CMV-LACZ in Myotubes, signal relative to DMSO ([1]; 10 uM) | CMV-LACZ in Myotubes, signal relative to DMSO ([1]; 20 uM) | CMV-LACZ in Myotubes, signal relative to DMSO ([1]; 40 uM) | Burkin Assay in Myoblasts, signal relative to DMSO ([2]; 0.5 uM) | Burkin Assay in Myoblasts, signal relative to DMSO ([2]; 1 uM) | Burkin Assay in Myoblasts, signal relative to DMSO ([2]; 5 uM) | Burkin Assay in Myoblasts, signal relative to DMSO ([2]; 10 uM) | Burkin Assay in Myoblasts, signal relative to DMSO ([2]; 20 uM) | Burkin Assay in Myoblasts, signal relative to DMSO ([2]; 40 uM) | Burkin Assay in Myotubes, α7 integrin LacZ reporter signal relative to DMSO ([3]; 0.5 uM) | Burkin Assay in Myotubes, α7 integrin LacZ reporter signal relative to DMSO ([3]; 1 uM) | Burkin Assay in Myotubes, α7 integrin LacZ reporter signal relative to DMSO ([3]; 5 uM) | Burkin Assay in Myotubes, α7 integrin LacZ reporter signal relative to DMSO ([3]; 10 uM) | Burkin Assay in Myotubes, α7 integrin LacZ reporter signal relative to DMSO ([3]; 20 uM) | Burkin Assay in Myotubes, α7 integrin LacZ reporter signal relative to DMSO ([3]; 40 uM) | CMV-LACZ in Myoblasts (β-galactosidase activity relative to DMSO) ([4]; 0.5 uM) | CMV-LACZ in Myoblasts (β-galactosidase activity relative to DMSO) ([4]; 1 uM) | also measured |
| --- | --- | --- | --- | --- | --- | --- | --- | --- | --- | --- | --- | --- | --- | --- | --- | --- | --- | --- | --- | --- | --- |
| O=C(CSc1nnc(COc2ccc(Br)cc2)o1)NC1CCCCC1 [MLS001215357-01] | 1.1547 | 1.1400 | 1.1407 | 1.1192 | 1.3622 | 1.0667 | 1.037 | 0.93 | 0.8837 | 1.489 | 0.9203 | 0.5327 | 0.9366 | 0.8137 | 0.9057 | 0.884 | 0.756 | 0.6929 | 1.1560 | 1.2686 | CMV-LACZ in Myoblasts (β-galactosidase activity relative to DMSO) ([4]; 5 uM): 0.8575; CMV-LACZ in Myoblasts (β-galactosidase activity relative to DMSO) ([4]; 10 uM): 1.0378; CMV-LACZ in Myoblasts (β-galactosidase activity relative to DMSO) ([4]; 20 uM): 1.2467; CMV-LACZ in Myoblasts (β-galactosidase activity relative to DMSO) ([4]; 40 uM): 0.4719 |
| CCCCNc1nnc(Cc2ccc(Cl)cc2)c(=O)[nH]1 [MLS001215795-01] | 0.9363 | 1.0207 | 0.9309 | 1.0250 | 1.3929 | 1.1035 | 1.143 | 1.207 | 0.932 | 0.7776 | 0.741 | 0.7187 | 1.291 | 1.191 | 0.863 | 0.9107 | 0.9147 | 0.8873 | 0.8003 | 1.1375 | CMV-LACZ in Myoblasts (β-galactosidase activity relative to DMSO) ([4]; 5 uM): 1.0974; CMV-LACZ in Myoblasts (β-galactosidase activity relative to DMSO) ([4]; 10 uM): 0.8628; CMV-LACZ in Myoblasts (β-galactosidase activity relative to DMSO) ([4]; 20 uM): 0.8196; CMV-LACZ in Myoblasts (β-galactosidase activity relative to DMSO) ([4]; 40 uM): 0.8256 |
| CC(C)(C)Nc1nc(-c2ccc3c(c2)CCN3C(=O)C2CC2)cs1 [MLS001216939-01] | 1.0311 | 0.9748 | 1.1826 | 1.2568 | 1.1518 | 0.9659 | 1.123 | 1.2827 | 1.111 | 0.9828 | 0.8633 | 0.7865 | 1.193 | 1.185 | 1.07 | 1.06 | 0.8529 | 0.4743 | 1.0991 | 1.1134 | CMV-LACZ in Myoblasts (β-galactosidase activity relative to DMSO) ([4]; 5 uM): 1.0913; CMV-LACZ in Myoblasts (β-galactosidase activity relative to DMSO) ([4]; 10 uM): 0.9452; CMV-LACZ in Myoblasts (β-galactosidase activity relative to DMSO) ([4]; 20 uM): 1.1863; CMV-LACZ in Myoblasts (β-galactosidase activity relative to DMSO) ([4]; 40 uM): 1.0644 |
| Cc1ccc(Cn2nnc3c(=O)[nH]c(C4CCCN(C(=O)c5ccco5)C4)nc32)cc1 (stereo not drawn) [MLS001217212-01] | 1.0190 | 0.9610 | 0.9795 | 1.0832 | 1.1842 | 1.0105 | 1.095 | 1.178 | 0.9785 | 0.9933 | 0.9967 | 1.064 | 0.8233 | 0.8386 | 0.8831 | 0.8772 | 0.7663 | 0.7366 | 1.1804 | 0.9179 | CMV-LACZ in Myoblasts (β-galactosidase activity relative to DMSO) ([4]; 5 uM): 1.0711; CMV-LACZ in Myoblasts (β-galactosidase activity relative to DMSO) ([4]; 10 uM): 1.0626; CMV-LACZ in Myoblasts (β-galactosidase activity relative to DMSO) ([4]; 20 uM): 1.1137; CMV-LACZ in Myoblasts (β-galactosidase activity relative to DMSO) ([4]; 40 uM): 0.9459 |
| CCCc1nnc(SCC(=O)NC2CCCC2)n1CCOC [MLS001217935-01] | 0.9705 | 1.1381 | 1.1473 | 0.9648 | 1.0547 | 0.9495 | 1.162 | 1.076 | 0.9106 | 0.893 | 0.8002 | 0.587 | 0.9075 | 1.018 | 0.8812 | 1.081 | 0.7887 | 0.5246 | 1.1729 | 1.1167 | CMV-LACZ in Myoblasts (β-galactosidase activity relative to DMSO) ([4]; 5 uM): 1.0175; CMV-LACZ in Myoblasts (β-galactosidase activity relative to DMSO) ([4]; 10 uM): 1.0465; CMV-LACZ in Myoblasts (β-galactosidase activity relative to DMSO) ([4]; 20 uM): 0.7859; CMV-LACZ in Myoblasts (β-galactosidase activity relative to DMSO) ([4]; 40 uM): 0.5381 |
